Common to all, as to assay: NCI tumour cell line growth inhibition, 48 h
In assay [1] the test system is UACC-257.
The subject of assay [2] is HCC 2998.
Assay [3] relates to SN12C.
Assay [4] deals with OVCAR-3.
For assay [5], the system named is HCT-15.
The subject of assay [6] is OVCAR-5.
Assay [7] has as its system NCI-H460.
The test system of assay [8] is HOP-62.
Assay [9] deals with UO-31.
The test system of assay [10] is SK-MEL-5.
Assay [11] concerns NCI-H522.
The test system of assay [12] is 786-0.
Assay [13] relates to U-251.
For assay [14], the system named is OVCAR-8.
For assay [15], the system named is COLO 205.
Assay [16] relates to SNB-75.
Assay [17] concerns A498.
Assay [18] has as its system KM-20L2.

Molecules are shown by their SMILES.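 Assay format: 96-well plates, 48-hour exposure. GI50: concentration for 50% inhibition of growth.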 The source made the active and inactive calls. No stated cut-off is given here; in the data, active = GI50 up to about 1.1 µM and inactive = higher.

In the case of `O=C1C(=O)N(c2ccc(Cl)cc2Cl)C(=O)C(=O)C1c1nc2ccccc2o1`, the GI50 in assay [1] is > 100 µM (inactive); in assay [2], > 100 µM (inactive); in [3] it was > 100 µM (inactive); in assay [4] it was > 100 µM (inactive); in [5] it was over 100 µM; in assay [6], > 100 µM (inactive). For the same molecule, the GI50 in [7], in assay [8], in [9], in [10], in [11] and in assay [12] was > 100 µM (inactive) throughout. Moreover, the GI50 in assay [13], in [14], in [15], in assay [16], in assay [17] and in assay [18] was > 100 µM (inactive) in each case.

Consider `CCOC(=O)c1cnc2c(ccc3ncccc32)c1OCC`, for which the GI50 was > 100 µM (inactive) in assay [1]; > 100 µM (inactive) in assay [2]; > 100 µM (inactive) in assay [3]; > 100 µM (inactive) in assay [4]; over 100 µM in [5]; > 100 µM (inactive) in [6]. The GI50 in [7], in [8], in assay [9], in assay [10], in assay [11] and in assay [12] was > 100 µM (inactive) each time. The GI50 in assay [13], in assay [14], in [15], in assay [16], in [17] and in assay [18] was > 100 µM (inactive) throughout.

As to `CN(C)CCN1N=Nc2cccc3cccc1c23`, the GI50 is > 100 µM (inactive) in assay [1]; > 100 µM (inactive) in [2]; > 55.5 µM (inactive) in assay [3]; > 100 µM (inactive) in [4]; over 61.9 µM in assay [5]; > 100 µM (inactive) in assay [6]. The GI50 is 37.5 µM (inactive) in [7]; > 100 µM (inactive) in assay [8]; > 100 µM (inactive) in [9]; > 88.7 µM (inactive) in [10]; 54.2 µM (inactive) in assay [11]; > 100 µM (inactive) in assay [12]. The GI50 is > 100 µM (inactive) in [13]; 97.9 µM (inactive) in [14]; 68.4 µM (inactive) in assay [15]; > 100 µM (inactive) in assay [16]; > 91.8 µM (inactive) in [17]; > 61.4 µM (inactive) in [18].

As for `CCCC1C(=O)CCc2c(OC)ccc(OC)c21` (stereo unspecified), the GI50 was > 100 µM (inactive) in assay [1]; > 100 µM (inactive) in [2]; > 100 µM (inactive) in [3]; 73.6 µM (inactive) in assay [4]; over 100 µM in assay [5]; > 100 µM (inactive) in assay [6]. Besides, the GI50 was > 100 µM (inactive) in [7]; > 100 µM (inactive) in assay [8]; 17.1 µM (inactive) in [9]; > 100 µM (inactive) in assay [10]; > 100 µM (inactive) in assay [12]; > 100 µM (inactive) in assay [13]. Also, the GI50 in assay [14] is 92.7 µM (inactive); in assay [15] it was > 100 µM (inactive); in assay [16], 57.5 µM (inactive); in [17], > 100 µM (inactive); in assay [18] it was > 100 µM (inactive).

As for `CC(C)(C)NC(=O)C12C3C4C1C1C2C3C41I` (stereo unspecified), the GI50 in [1] is > 100 µM (inactive); in assay [2] it was > 100 µM (inactive); in assay [3], > 100 µM (inactive); in assay [5], over 100 µM; in [6] it was > 100 µM (inactive); in assay [7] it was > 100 µM (inactive). In addition, the GI50 in assay [9], in assay [11], in [12], in assay [13], in assay [14] and in [15] was > 100 µM (inactive) each time. Besides, the GI50 in assay [17] and in assay [18] was > 100 µM (inactive) throughout.

On to `CSc1ccc(-c2cn3ccsc3n2)c(O)c1`, for which the GI50 in assay [1] was > 24.2 µM (inactive); in assay [2], > 60 µM (inactive); in assay [3] it was > 79.1 µM (inactive); in assay [4] it was 36.7 µM (inactive); in assay [5], 17.6 µM; in assay [6], > 92.9 µM (inactive). Moreover, the GI50 is 13.6 µM (inactive) in assay [7]; 49.9 µM (inactive) in [8]; 59.8 µM (inactive) in assay [9]; 41 µM (inactive) in [10]; 37.2 µM (inactive) in assay [11]; 20.7 µM (inactive) in assay [12]. Moreover, the GI50 was 46 µM (inactive) in assay [13]; > 89.9 µM (inactive) in [14]; > 44.5 µM (inactive) in [15]; 35.6 µM (inactive) in assay [16]; > 86.3 µM (inactive) in assay [17]; > 65.2 µM (inactive) in assay [18].

As for `NC1=NCCC1(c1ccccc1)c1ccccn1` (stereo unspecified), the GI50 is > 100 µM (inactive) in assay [1]; > 100 µM (inactive) in assay [2]; > 100 µM (inactive) in [3]; > 100 µM (inactive) in assay [4]; over 100 µM in assay [5]; > 100 µM (inactive) in [6]. Moreover, the GI50 in assay [7], in [8], in [10], in [11], in [12] and in assay [13] was > 100 µM (inactive) in each case. Besides, the GI50 in [14], in assay [15], in assay [16], in [17] and in assay [18] was > 100 µM (inactive) throughout.

Take `Nc1c(-c2ccc(Cl)cc2)[n+]([O-])c2ccccc2[n+]1[O-]`: the GI50 in assay [1] is 58.5 µM (inactive); in assay [2] it was 49.9 µM (inactive); in assay [3] it was 95.1 µM (inactive); in [4] it was 67.3 µM (inactive); in [5], 76.4 µM; in assay [6] it was > 100 µM (inactive). Besides, the GI50 in [7] was 94.2 µM (inactive); in assay [8], > 100 µM (inactive); in assay [9] it was 5.86 µM (inactive); in assay [10] it was > 100 µM (inactive); in assay [11], 25.3 µM (inactive); in [12], > 100 µM (inactive). Further, the GI50 in [13] is 62.2 µM (inactive); in assay [14], > 100 µM (inactive); in assay [15] it was > 100 µM (inactive); in [16] it was 67.3 µM (inactive); in assay [17], 95.3 µM (inactive); in assay [18] it was > 100 µM (inactive).

Consider `COC(=O)C1=CC(=O)C(C(=O)Nc2ccc(OC)cc2)C(c2ccccc2)O1` (stereo unspecified), for which the GI50 in assay [1] is 72.8 µM (inactive); in assay [2] it was > 53.8 µM (inactive); in [3], 47.5 µM (inactive); in [4] it was 22.7 µM (inactive); in [5], 40.6 µM; in [6] it was > 100 µM (inactive). The GI50 in [7] is 43.9 µM (inactive); in assay [8], 24 µM (inactive); in assay [9], 30.5 µM (inactive); in assay [10] it was 25.7 µM (inactive); in assay [11], 28 µM (inactive); in assay [12], 20.7 µM (inactive). Moreover, the GI50 in assay [13] was 21 µM (inactive); in [14], 34.6 µM (inactive); in assay [15], > 100 µM (inactive); in [16] it was 23.1 µM (inactive); in [17], 29.2 µM (inactive); in assay [18] it was > 78.2 µM (inactive).

The values are drawn from ChEMBL document CHEMBL1201862, “PubChem BioAssay data set” (2004).
